In patent publication US10155764B2, “Therapeutic compounds and uses thereof” (GENENTECH, INC., priority 2014, dated 2018):
Where a name gives a salt, the structure may show the parent alone.

The compounds below were run against PCAF719-832 bromodomain (Homo sapiens (Human), UniProt Q92831) (assay: PCAF AlphaLisa binding assay). Conditions: PCAF bromodomain 225 nM, biotinylated small molecule ligand 6 nM.
Chain of PCAF719-832 bromodomain (Q92831 719-832): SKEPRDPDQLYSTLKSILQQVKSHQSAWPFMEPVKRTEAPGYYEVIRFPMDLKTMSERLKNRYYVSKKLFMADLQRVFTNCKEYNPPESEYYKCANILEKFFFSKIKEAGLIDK

| IC50 [nM] | SMILES |
| --- | --- |
| 61 | C[C@H](Nc1nn(C)c(=O)c2ccccc12)[C@H](c1ccc(S(=O)(=O)c2ccccc2)cc1)N(C)C [Example 55, 4-(((1S,2S)-1-(dimethylamino)-1-(4-(phenylsulfonyl)phenyl)propan-2-yl)amino)-2-methylphthalazin-1(2H)-one] |
| 160 | COC(=O)c1ccc([C@@H]([C@H](C)Nc2nn(C)c(=O)c3cccnc23)N(C)C)cc1 [Example 68, Methyl 4-((1S,2S)-1-(dimethylamino)-2-((6-methyl-5-oxo-5,6-dihydropyrido[2,3-d]pyridazin-8-yl)amino)propyl)benzoate] |
| 42 | C[C@H](Nc1nn(C)c(=O)c2ccccc12)[C@H](c1ccc(O)cc1)N(C)C [Example 76, 4-(((1S,2S)-1-(dimethylamino)-1-(4-hydroxyphenyl)propan-2-yl)amino)-2-methylphthalazin-1(2H)-one] |
| 98 | C[C@H](Nc1nn(C)c(=O)c2cccnc12)[C@H](c1ccc(C(=O)O)cc1)N(C)C [Example 81, 4-((1S,2S)-1-(dimethylamino)-2-((6-methyl-5-oxo-5,6-dihydropyrido[2,3-d]pyridazin-8-yl)amino)propyl)benzoic acid] |
| 59 | C[C@H](Nc1nn(C)c(=O)c2cccnc12)[C@H](c1ccc(C(=O)N2CCOCC2)cc1)N(C)C [Example 82, 8-(((1S,2S)-1-(dimethylamino)-1-(4-(morpholine-4-carbonyl)phenyl)propan-2-yl)amino)-6-methylpyrido[2,3-d]pyridazin-5(6H)-one] |
| 30 | CC(C)OC(=O)c1ccc([C@@H]([C@H](C)Nc2nn(C)c(=O)c3cccnc23)N(C)C)cc1 [Example 86, Isopropyl 4-((1S,2S)-1-(dimethylamino)-2-((6-methyl-5-oxo-5,6-dihydropyrido[2,3-d]pyridazin-8-yl)amino)propyl)benzoate] |
| 29 | C[C@H](Nc1nn(C)c(=O)c2cccnc12)[C@H](c1ccc(C(=O)OCc2ccccc2)cc1)N(C)C [Example 87, benzyl 4-((1S,2S)-1-(dimethylamino)-2-((6-methyl-5-oxo-5,6-dihydropyrido[2,3-d]pyridazin-8-yl)amino)propyl)benzoate hydrochloride] |
| 80 | C[C@H](Nc1nn(C)c(=O)c2ccccc12)[C@H](c1ccc(=O)[nH]c1)N(C)C [Example 88, 4-(((1S,2S)-1-(dimethylamino)-1-(6-oxo-1,6-dihydropyridin-3-yl)propan-2-yl)amino)-2-methylphthalazin-1(2H)-one] |
